Measured values: ChEMBL document CHEMBL1130730, “Immunomodulatory activity of thunberginol A and related compounds isolated from Hydrangeae Dulcis Folium on splenocyte proliferation activated by mitogens” (Bioorg Med Chem Lett, 1998)
Activity calls are given as the source filed them. The calls are words filed in the database; no cut-off is given here.

Experiments:
Mus musculus [1] = organism: Mus musculus; experiment: Tested for inhibitory activity against B lymphocyte proliferation induced by LPS at 10e-5 M; significantly potentiated the proliferation; format: functional
Mus musculus [2] = organism: Mus musculus; experiment: Tested for inhibitory activity against T lymphocyte proliferation induced by PHA; showed no suppressive effect; format: functional
Mus musculus [3] = organism: Mus musculus; experiment: Tested for inhibitory activity against T lymphocyte proliferation induced by Con A at 10e-5 M; slightly suppressed the proliferation; format: functional
Mus musculus [4] = organism: Mus musculus; experiment: Tested for inhibitory activity against B lymphocyte proliferation induced by LPS at 10e-7 M; suppressed the proliferation; format: functional
Mus musculus [5] = organism: Mus musculus; experiment: Tested for inhibitory activity against T lymphocyte proliferation induced by Con A at 10e-7 M; showed potent suppressive effect; format: functional
Mus musculus [6] = organism: Mus musculus; experiment: Tested for inhibitory activity against T lymphocyte proliferation induced by PHA at 10e-7 M; showed potent suppressive effect; format: functional
Mus musculus [7] = experiment: Tested for inhibitory activity against contact ear dermatitis in mice induced by dinitrofluorobenzene by consecutive oral administration in the primary sensitizing phase; showed inhibition; format: functional, organism-based
Rattus norvegicus [8] = experiment: Tested for in vivo inhibitory activity against asthmatic bronchoconstriction in rats induced by antigen-antibody reaction; showed inhibition; format: functional, organism-based
Rattus norvegicus [9] = experiment: Tested for in vivo inhibitory activity against passive cutaneous anaphylaxis (PCA) reaction in rats; showed inhibition; format: functional, organism-based
Rattus norvegicus [10] = experiment: Tested for […] inhibitory activity against type 1 allergic reactions after oral administration; showed inhibition; format: functional, organism-based
Mus musculus [11] = organism: Mus musculus; experiment: Tested for inhibitory activity against B lymphocyte proliferation induced by LPS at 10e-5 M; significantly suppressed the proliferation; format: functional
Mus musculus [12] = experiment: Tested for inhibitory activity against hind paw edema sensitized with sheep red blood cells (SRBC) in both sensitizing and inflammatory phases after oral administration; showed reduction
Mus musculus [13] = organism: Mus musculus; experiment: Tested for inhibitory activity against T lymphocyte proliferation induced by Con A at 10e-6 to 10e-5 M; significantly suppressed the proliferation; format: functional

Row | SMILES | Activity (Mus musculus [1]) | Activity (Mus musculus [2]) | Activity (Mus musculus [3]) | further results
1 | O=C1O/C(=C\c2ccc(O)c(O)c2)c2cccc(O)c21 | no suppressive effect | no suppressive effect | – | –
2 | O=C1OC(c2ccc(O)cc2)Cc2cc(O)cc(O)c21 (stereo not drawn) | no suppressive effect | no suppressive effect | no suppressive effect | –
3 | O=C1OC(c2ccc(O)c(O)c2)Cc2cc(O)cc(O)c21 (stereo not drawn) | no suppressive effect | no suppressive effect | no suppressive effect | –
4 | COc1ccc([C@H]2Cc3cc(O)cc(O)c3C(=O)O2)cc1O | significantly potentiated the proliferation | – | significantly potentiated the proliferation | –
5 | C[C@]12CCC(=O)C=C1CCC1[C@@H]2[C@@H](O)C[C@@]2(C)[C@H]1CC[C@]2(O)C(=O)CO (single isomer, unassigned) | – | – | – | Activity (Mus musculus [4]): Active; Activity (Mus musculus [5]): Active; Activity (Mus musculus [6]): Active
6 | O=C1OC(c2ccc(O)c(O)c2)Cc2cccc(O)c21 (stereo not drawn) | no suppressive effect | no suppressive effect | no suppressive effect | –
7 | O=c1oc(-c2ccc(O)c(O)c2)cc2cc(O)cc(O)c12 | no suppressive effect | no suppressive effect | – | –
8 | O=c1oc(-c2ccc(O)cc2)cc2cccc(O)c12 | no suppressive effect | no suppressive effect | – | –
9 | O=c1oc(-c2ccc(O)c(O)c2)cc2cccc(O)c12 | – | – | – | Activity (Mus musculus [7]): inhibition; Activity (Rattus norvegicus [8]): inhibition; Activity (Rattus norvegicus [9]): inhibition; Activity (Rattus norvegicus [10]): inhibition; Activity (Mus musculus [11]): inhibition; Activity (Mus musculus [12]): inhibition; Activity (Mus musculus [13]): inhibition
10 | O=C1OC(c2ccc(O)cc2)Cc2cccc(O)c21 (stereo not drawn) | no suppressive effect | no suppressive effect | – | –
11 | O=C(O)c1c(O)cccc1/C=C/c1ccc(O)c(O)c1 | no suppressive effect | no suppressive effect | – | –
12 | COc1ccc([C@H]2Cc3cccc(O)c3C(=O)O2)cc1O | significantly potentiated the proliferation | – | significantly potentiated the proliferation | –
